Reference: ChEMBL document CHEMBL1201862, “PubChem BioAssay data set” (2004)
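Method: 48-hour compound exposure of cells in 96-well plates, five concentrations, linear interpolation of endpoints. At the GI50, growth is halved.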 Activity calls are given as the source filed them. Rule as the data show it: active = GI50 up to about 1.1 µM and inactive = higher.

Experiments:
Test in all cases: inhibition of tumour cell growth, NCI panel, 48 h
UACC-257 = tested on: UACC-257
MDA-MB-435 = tested on: MDA-MB-435
SK-MEL-28 = tested on: SK-MEL-28
NCI-H522 = tested on: NCI-H522
Hs-578T = tested on: Hs-578T
EKVX = tested on: EKVX
HCC 2998 = tested on: HCC 2998
NCI-H23 = tested on: NCI-H23
ACHN = tested on: ACHN
HOP-92 = tested on: HOP-92
786-0 = tested on: 786-0
NCI-H460 = tested on: NCI-H460
HOP-62 = tested on: HOP-62
SNB-19 = tested on: SNB-19
KM12 = tested on: KM12
NCI/ADR-RES = tested on: NCI/ADR-RES
HT-29 = tested on: HT-29
T47D = tested on: T47D
SF-295 = tested on: SF-295
SK-MEL-5 = tested on: SK-MEL-5
LOX IMVI = tested on: LOX IMVI
M14 = tested on: M14
A549 = tested on: A549
SF-268 = tested on: SF-268
U-251 = tested on: U-251
UO-31 = tested on: UO-31
COLO 205 = tested on: COLO 205
SN12C = tested on: SN12C
HCT-15 = tested on: HCT-15
BT-549 = tested on: BT-549
SNB-75 = tested on: SNB-75
OVCAR-3 = tested on: OVCAR-3
IGROV-1 = tested on: IGROV-1
K562 = tested on: K562
Malme-3M = tested on: Malme-3M
DU-145 = tested on: DU-145
NCI-H226 = tested on: NCI-H226
MCF7 = tested on: MCF7
CAKI-1 = tested on: CAKI-1
HL-60 = tested on: HL-60
MOLT-4 = tested on: MOLT-4
MDA-N = tested on: MDA-N
SK-OV-3 = tested on: SK-OV-3
OVCAR-4 = tested on: OVCAR-4
PC-3 = tested on: PC-3
SK-MEL-2 = tested on: SK-MEL-2
RPMI-8226 = tested on: RPMI-8226
OVCAR-8 = tested on: OVCAR-8
SR = tested on: SR
MDA-MB-231 = tested on: MDA-MB-231
TK-10 = tested on: TK-10
SW-620 = tested on: SW-620
CCRF-CEM = tested on: CCRF-CEM
HCT-116 = tested on: HCT-116
OVCAR-5 = tested on: OVCAR-5
SF-539 = tested on: SF-539
UACC-62 = tested on: UACC-62
RXF 393 = tested on: RXF 393

Structure (SMILES): NC(CCC(=O)O)C(=O)N1CCN(c2nc(N3CCCC3)c3nc(Cl)c(NCc4ccccc4)nc3n2)CC1 (stereo not drawn)
- GI50 (UACC-257): 14.5 µM (inactive)
- GI50 (MDA-MB-435): 9.48 µM (inactive)
- GI50 (SK-MEL-28): 9.48 µM (inactive)
- GI50 (NCI-H522): 14.8 µM (inactive)
- GI50 (Hs-578T): 20 µM (inactive)
- GI50 (EKVX): 13.8 µM (inactive)
- GI50 (HCC 2998): 11.4 µM (inactive)
- GI50 (NCI-H23): 15.4 µM (inactive)
- GI50 (ACHN): 15.1 µM (inactive)
- GI50 (HOP-92): 15.8 µM (inactive)
- GI50 (786-0): 12.1 µM (inactive)
- GI50 (NCI-H460): 10.3 µM (inactive)
- GI50 (HOP-62): 13.2 µM (inactive)
- GI50 (SNB-19): 17.5 µM (inactive)
- GI50 (KM12): 16.1 µM (inactive)
- GI50 (NCI/ADR-RES): 20.8 µM (inactive)
- GI50 (HT-29): 9.95 µM (inactive)
- GI50 (T47D): 6.64 µM (inactive)
- GI50 (SF-295): 11.6 µM (inactive)
- GI50 (SK-MEL-5): 8.04 µM (inactive)
- GI50 (LOX IMVI): 14.6 µM (inactive)
- GI50 (M14): 10 µM (inactive)
- GI50 (A549): 12.5 µM (inactive)
- GI50 (SF-268): 13.1 µM (inactive)
- GI50 (U-251): 13.8 µM (inactive)
- GI50 (UO-31): 9.29 µM (inactive)
- GI50 (COLO 205): 10.7 µM (inactive)
- GI50 (SN12C): 15.8 µM (inactive)
- GI50 (HCT-15): 14 µM
- GI50 (BT-549): 12.1 µM (inactive)
- GI50 (SNB-75): 12 µM (inactive)
- GI50 (OVCAR-3): 8.71 µM (inactive)
- GI50 (IGROV-1): 21.2 µM (inactive)
- GI50 (K562): 12.7 µM (inactive)
- GI50 (Malme-3M): 17.3 µM (inactive)
- GI50 (DU-145): 8.43 µM (inactive)
- GI50 (NCI-H226): 12.3 µM (inactive)
- GI50 (MCF7): 7.24 µM (inactive)
- GI50 (CAKI-1): 17.8 µM (inactive)
- GI50 (HL-60): 7.13 µM (inactive)
- GI50 (MOLT-4): 7.53 µM (inactive)
- GI50 (MDA-N): 10.1 µM (inactive)
- GI50 (SK-OV-3): 18 µM (inactive)
- GI50 (OVCAR-4): 10.5 µM (inactive)
- GI50 (PC-3): 13.3 µM (inactive)
- GI50 (SK-MEL-2): 15.6 µM (inactive)
- GI50 (RPMI-8226): 5.79 µM (inactive)
- GI50 (OVCAR-8): 15.6 µM (inactive)
- GI50 (SR): 3.68 µM (inactive)
- GI50 (MDA-MB-231): 14.4 µM (inactive)
- GI50 (TK-10): 17.1 µM (inactive)
- GI50 (SW-620): 18.2 µM (inactive)
- GI50 (CCRF-CEM): 7.19 µM (inactive)
- GI50 (HCT-116): 13.9 µM (inactive)
- GI50 (OVCAR-5): 18.7 µM (inactive)
- GI50 (SF-539): 13.2 µM (inactive)
- GI50 (UACC-62): 11.2 µM (inactive)

Structure (SMILES): c1ccc(-c2cc(-c3ccncc3)cc(-c3ccncc3)n2)cc1
- GI50 (UACC-257): > 100 µM (inactive)
- GI50 (MDA-MB-435): > 100 µM (inactive)
- GI50 (SK-MEL-28): > 100 µM (inactive)
- GI50 (NCI-H522): 18.2 µM (inactive)
- GI50 (Hs-578T): 38.5 µM (inactive)
- GI50 (EKVX): > 100 µM (inactive)
- GI50 (HCC 2998): > 100 µM (inactive)
- GI50 (NCI-H23): > 100 µM (inactive)
- GI50 (ACHN): > 100 µM (inactive)
- GI50 (786-0): 69.3 µM (inactive)
- GI50 (RXF 393): > 100 µM (inactive)
- GI50 (HOP-62): 33.3 µM (inactive)
- GI50 (SNB-19): 45.2 µM (inactive)
- GI50 (KM12): > 100 µM (inactive)
- GI50 (NCI/ADR-RES): > 100 µM (inactive)
- GI50 (HT-29): > 100 µM (inactive)
- GI50 (T47D): > 100 µM (inactive)
- GI50 (SF-295): 62.2 µM (inactive)
- GI50 (SK-MEL-5): > 100 µM (inactive)
- GI50 (LOX IMVI): > 100 µM (inactive)
- GI50 (M14): > 100 µM (inactive)
- GI50 (A549): > 100 µM (inactive)
- GI50 (SF-268): 45.6 µM (inactive)
- GI50 (U-251): 51.3 µM (inactive)
- GI50 (UO-31): > 100 µM (inactive)
- GI50 (COLO 205): > 100 µM (inactive)
- GI50 (SN12C): > 100 µM (inactive)
- GI50 (HCT-15): > 100 µM
- GI50 (BT-549): > 100 µM (inactive)
- GI50 (SNB-75): 29 µM (inactive)
- GI50 (OVCAR-3): > 100 µM (inactive)
- GI50 (IGROV-1): > 100 µM (inactive)
- GI50 (K562): > 100 µM (inactive)
- GI50 (Malme-3M): > 100 µM (inactive)
- GI50 (DU-145): > 100 µM (inactive)
- GI50 (NCI-H226): > 100 µM (inactive)
- GI50 (MCF7): 0.618 µM (active)
- GI50 (CAKI-1): > 100 µM (inactive)
- GI50 (HL-60): > 100 µM (inactive)
- GI50 (MOLT-4): > 100 µM (inactive)
- GI50 (MDA-N): > 100 µM (inactive)
- GI50 (SK-OV-3): 80.7 µM (inactive)
- GI50 (OVCAR-4): > 100 µM (inactive)
- GI50 (PC-3): > 100 µM (inactive)
- GI50 (SK-MEL-2): > 100 µM (inactive)
- GI50 (RPMI-8226): > 100 µM (inactive)
- GI50 (OVCAR-8): > 100 µM (inactive)
- GI50 (SR): > 100 µM (inactive)
- GI50 (MDA-MB-231): > 100 µM (inactive)
- GI50 (TK-10): > 100 µM (inactive)
- GI50 (SW-620): > 100 µM (inactive)
- GI50 (CCRF-CEM): > 100 µM (inactive)
- GI50 (HCT-116): > 100 µM (inactive)
- GI50 (OVCAR-5): > 100 µM (inactive)
- GI50 (UACC-62): > 100 µM (inactive)

Structure (SMILES): N#CCC1COc2ccccc2O1 (stereo not drawn)
- GI50 (UACC-257): > 10 µM (inactive)
- GI50 (MDA-MB-435): > 10 µM (inactive)
- GI50 (SK-MEL-28): > 10 µM (inactive)
- GI50 (NCI-H522): > 10 µM (inactive)
- GI50 (Hs-578T): > 10 µM (inactive)
- GI50 (HCC 2998): > 10 µM (inactive)
- GI50 (NCI-H23): > 10 µM (inactive)
- GI50 (ACHN): > 10 µM (inactive)
- GI50 (HOP-92): > 10 µM (inactive)
- GI50 (786-0): > 10 µM (inactive)
- GI50 (HOP-62): > 10 µM (inactive)
- GI50 (SNB-19): > 10 µM (inactive)
- GI50 (KM12): > 10 µM (inactive)
- GI50 (NCI/ADR-RES): > 10 µM (inactive)
- GI50 (HT-29): > 10 µM (inactive)
- GI50 (T47D): > 10 µM (inactive)
- GI50 (SF-295): > 10 µM (inactive)
- GI50 (SK-MEL-5): > 10 µM (inactive)
- GI50 (LOX IMVI): > 10 µM (inactive)
- GI50 (M14): > 10 µM (inactive)
- GI50 (A549): > 10 µM (inactive)
- GI50 (SF-268): > 10 µM (inactive)
- GI50 (U-251): > 10 µM (inactive)
- GI50 (COLO 205): > 10 µM (inactive)
- GI50 (SN12C): > 10 µM (inactive)
- GI50 (HCT-15): > 10 µM
- GI50 (BT-549): > 10 µM (inactive)
- GI50 (SNB-75): > 10 µM (inactive)
- GI50 (IGROV-1): > 10 µM (inactive)
- GI50 (K562): > 10 µM (inactive)
- GI50 (Malme-3M): > 10 µM (inactive)
- GI50 (DU-145): > 10 µM (inactive)
- GI50 (MCF7): > 10 µM (inactive)
- GI50 (CAKI-1): > 10 µM (inactive)
- GI50 (HL-60): > 10 µM (inactive)
- GI50 (MOLT-4): > 10 µM (inactive)
- GI50 (MDA-N): > 10 µM (inactive)
- GI50 (SK-OV-3): > 10 µM (inactive)
- GI50 (OVCAR-4): > 10 µM (inactive)
- GI50 (PC-3): > 10 µM (inactive)
- GI50 (RPMI-8226): > 10 µM (inactive)
- GI50 (OVCAR-8): > 10 µM (inactive)
- GI50 (SR): > 10 µM (inactive)
- GI50 (MDA-MB-231): > 10 µM (inactive)
- GI50 (TK-10): > 10 µM (inactive)
- GI50 (SW-620): > 10 µM (inactive)
- GI50 (CCRF-CEM): > 10 µM (inactive)
- GI50 (HCT-116): > 10 µM (inactive)
- GI50 (OVCAR-5): > 10 µM (inactive)
- GI50 (SF-539): > 10 µM (inactive)
- GI50 (UACC-62): > 10 µM (inactive)
